The values below come from patent US6046228A, “Anti-viral pharmaceutical compositions containing saturated 1,2-dithiaheterocyclic compounds and uses thereof” (priority 1999, dated 2000).

Where “and” joins values, the source holds several entries; their conditions need not be identical. Identical values can stand only once. Like-named read-outs stand apart in the source and are kept apart here.

One assay concerns the target T1, HIV-1 p7NC protein (Human immunodeficiency virus type 1 group M subtype B, UniProt P04591).
T1 construct: recombinant HIV-1 p7NC protein
Description: Trp37 zinc finger fluorescence assay (zinc ejection from p7NC). The assay is classed as biochemical. As to conditions: 25 μM compound, listed as 693195. Here is the method:
Fluorescence measurements of the Trp^37 residue in the C-terminal zinc finger of the recombinant HIV-1 p7NC protein were performed as previously described (Rice et al., Science 270:1194, 1995). The p7NC protein was prepared at 20 μg/ml in 10 mM sodium phosphate buffer (pH 7.0), treated with 25 μM of each compound, then after indicated time intervals the samples were diluted 1/10 in 10 mM sodium phosphate buffer (pH 7.0) and the fluorescence intensity measured. The excitation and emission wavelengths utilized with the Shimadzu RF5000 spectrofluorimeter were 280 nm and 351 nm, respectively. In an alternate assay, the zinc-selective fluorescent probe N-(6-methoxy-8quinolyl-)-p-toluenesulfonamide (TSQ, Molecular Probes, Eugene, Oreg.) originally described by Fredrickson (J. Neurosci. Meth. 20:91, 1987) was utilized to measure zinc released from the p7NC protein in vitro. Briefly, 2 μM recombinant HIV-1 p7NC protein in 10 mM sodium phosphate buffer, pH 7.0, 10% glycerol was treated with 10 μM 624151 ([…] total volume in 96-well plates), and the time-dependent increase in fluorescence was measured on a Labsystems Fluoroskan II (360 nm excitation filter and 460 nm emission filter) over a period of 2 hours. Induction of alterations of p7NC proteins within intact virions involved treatment of HIV-1MN for 1 hour at 37° C. with 25 μM test compound. Samples were centrifuged 1 hour at 4° C. under 18,000×g to pellet the virus from the drug. Virus pellets were resolved by non-reducing SDS-PAGE and analyzed by immunoblot using monospecific rabbit antisera to the purified p7NC protein.
^b The percent decrease in RFU was calculated based on measurement of
the initial fluorescence of the p7NC protein before and 10 minutes after
treatment with the 25 μM of compound at ambient temperature.
The ability of 624151 to chemically interact with the zinc fingers of the HIV-1 p7NC protein was initially determined by a fluorescence assay (Rice et al., Science 270:1194-1197, (1995)) that measures a loss in intrinsic fluorescence of the tryptophan (Trp^37) residue in the second finger of the protein that occurs upon loss of zinc from the finger (Summers et al., Protein Sci. 1:563, 1992). […] As the 624151 modifies the zinc finger thiolates and the zinc is ejected over time, the metal is bound by the TSQ fluorochrome (FIG. 1(B)).
Sodium Phosphate buffer, pH 7.0 in 1 ml was treated with 25 μM of
compound. At indicated times, the mixture was diluted 1/10 and the
relative fluorescence units (RFU) measured in a Shimadzu RF5000
spectrofluorimeter with […] and Em = 351 mn. Following
loss of zinc from the Cterminal zinc finger, the Trp37 residue folds away
from the # aqueous environment and experiences a loss of fluorescence.

The next assay concerns the target T2, HIV-1 integrase (Human immunodeficiency virus type 1 group M subtype B, UniProt P04585).
T2 construct: the purified HIV-1 protease and integrase enzymes
The assay can be described thus: HIV-1 integrase activity. The settings on record: Table 6. Type of assay: biochemical.

A further assay relates to CEM-SS cells. Description: XTT assay, cytotoxicity (IC50), CEM-SS cells. Type of assay: cell-based. Here is the method:
(§1) Initial anti-HIV screening was performed with CEM-SS cells and HIV-1RFusing the XTT cytoprotection assay as previously described (Weislow et al., J. National Cancer Inst. 81: 577-586, (1989)). HIV-1 isolates included common laboratory stains (RF, IIIB and MN), as well as a panel of HIV-1 clinical isolates (Cushman et al., J. Med. Chem. 37: 3040-3050, (1994)). The pyridone-resistant HIV-1A17 isolate (Nunberg et al., J. Virol., 65: 4887-4892 (1991)) was obtained from Emilio Emini at Merck Sharpe and Dohme Laboratories. Phytohemagglutinin-stimulated human peripheral blood lymphocytes (PBLs) and fresh monocyte-macrophage (Mono/MF) cultures were prepared and utilized in antiviral assays as previously described (Rice et al., Proc. Nat'l. Academy Science, USA 90: 9721-9724, (1993)); (Cushman et al., J. Med. Chem. 37: 3040-3050, (1994)). EC50 values for these cultures indicate the drug concentration that provided a 50% reduction in viral p24 production. […] The compounds can be synthesized according to the teachings of Singh et al., Sulfur Letters 8: 107-114, (1988). […] MT-2, MT-4, U1, HeLa-CD4-LTR-β-gal and 174xCEM cells were obtained from the AIDS Research and Reference Program (National Institute of Allergy and Infectious Disease, National Institutes of Health, Bethesda, Md. USA), as were the HIV-2MS and the AZT-resistant HIV-1G910-6 isolates.
(§2) Racemate and enantiomers of the cis-1,1-dioxo[1,2]dithiane-4,5-diol were synthesized and evaluated for antiviral activity in the XTT assay as described hereinabove.

The test system of the next assay is HIV-1RF. The assay can be described thus: XTT cytoprotection (cytopathicity) anti-HIV assay, CEM-SS cells. The assay is classed as cell-based. Here is the method:
as §1, §2

Assay [1] relates to attachment of HIV-1 to fresh human PBLs. The assay can be described thus: virus attachment assay, HIV-1RF to PBLs (p24-based). Type of assay: cell-based. The settings on record: control; 30 min. Here is the method: Binding of HIV-1RF to PBLs was measured by a p24-based assay (Rice, et al., Proc. Nat'l. Academy of Science USA 90: 9721-9724, (1993)). Briefly, 5×10^5 PBLs were incubated with a concentrated stock of virus for 30 min. at 37° C. in the absence or presence of various concentrations of 624151, the unbound virus was washed away, and the cell-associated virus was solubilized in 1% Triton X-100, 1% BSA and analyzed by the p24 antigen capture assay as previously described. The binding of gp120to CD4 was analyzed using an antigen capture ELISA. All steps of the assay were carried out according to the manufacturer's protocols.
^.dagger. Attachment of HIV1 to fresh human PBLs, binding of gp120 to […]

`O=S1(=O)C[C@H](O)[C@H](O)CS1` (single isomer, unassigned) [NSC 693195, (-)-cis-4,5-Dihydroxy-1,2-dithiane 1,1-dioxide]: the “p7NC Trp37 Assay (RFU)” value on HIV-1 p7NC protein (0 min) came out at 279 RFU; at HIV-1 p7NC protein (3 min), 117 RFU; at HIV-1 p7NC protein (10 min) it was 69 RFU; on HIV-1 p7NC protein (30 min) it was 45 RFU. Also, the “inhibition of HIV-1 integrase” value against HIV-1 integrase is “NI100”. The 50% inhibitory concentration (IC50) is 129 µM and 135 µM in the assay with CEM-SS cells (Table 5, cytotoxicity, listed as 693195, read-out: IC50 Duplicates); 132 µM with CEM-SS cells (Table 5, cytotoxicity, listed as 693195, read-out: IC50 Mean); 132 µM in the assay with CEM-SS cells (cytotoxicity, CEM-SS cells, read-out: XTT Assay IC50). In addition, the EC50 is 8.8 µM in the assay on HIV-1RF (CEM-SS cells, HIV-1RF, read-out: XTT Assay EC50); 9.04 µM and 8.64 µM with HIV-1RF (Table 5, listed as 693195, read-out: EC50 Duplicates); 8.8 µM in the assay on HIV-1RF (Table 5, listed as 693195, read-out: EC50 Mean). Besides, in the assay with HIV-1RF (in words), the “EC50 relative to enantiomer or racemate” value is on record as “about half that of the (+) enantiomer”.
As to dextran sulfate [reference compound], in the assay with CEM-SS cells (Table 5, cytotoxicity), the “IC50 Duplicates” value was over 95 µg/mL and the “IC50 Mean” value is over 95 µg/mL. In the assay on HIV-1RF (Table 5), the “EC50 Mean” value amounted to 0.76 µg/mL. In assay [1], the “virion binding ID50” value was 1.8 µg/mL.

As a reminder, the IC50 is the concentration at which inhibition is half-maximal. The term EC50 denotes the concentration at which the effect is half-maximal.
